13 compounds from ChEMBL document CHEMBL1909046, “DrugMatrix in vitro pharmacology data” can be followed below.

Each structure is given as a SMILES string. pIC50, pKi: −log10 of the molar value.

Series [1] has as its target T1, Interstitial collagenase (Homo sapiens, UniProt P03956).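 Also: MMP-1 enzyme inhibition assay using a peptide substrate; in other assays of this panel Not Active means under 50% inhibition at 10 µM.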
T1 sequence (P03956 whole entry): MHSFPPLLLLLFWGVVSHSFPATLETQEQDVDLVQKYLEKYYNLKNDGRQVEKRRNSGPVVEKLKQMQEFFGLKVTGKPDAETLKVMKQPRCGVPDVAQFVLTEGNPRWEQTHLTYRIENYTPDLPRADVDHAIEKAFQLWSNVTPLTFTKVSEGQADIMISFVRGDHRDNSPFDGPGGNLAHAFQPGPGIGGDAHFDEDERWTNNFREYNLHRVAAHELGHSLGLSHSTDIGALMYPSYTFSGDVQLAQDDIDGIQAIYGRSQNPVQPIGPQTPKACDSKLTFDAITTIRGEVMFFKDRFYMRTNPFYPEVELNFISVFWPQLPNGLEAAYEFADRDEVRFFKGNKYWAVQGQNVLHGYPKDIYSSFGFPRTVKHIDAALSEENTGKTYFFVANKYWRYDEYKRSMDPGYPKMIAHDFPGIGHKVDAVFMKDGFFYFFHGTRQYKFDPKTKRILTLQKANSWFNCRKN
Description: biochemical. The class given is tissue-based, Rheumatoid synovial fibroblasts.

Series [2] can be described thus: DRUGMATRIX: Purinergic P2X radioligand binding (ligand: [3H] alpha, beta-Methylene-ATP). The class given is cell membranes, Oryctolagus cuniculus, New Zealand albino, Urinary bladder, Membrane. Particulars: Not Active = under 50% inhibition at 10 µM.
The target in series [3] is T2, Angiotensin-converting enzyme (Oryctolagus cuniculus, UniProt P12822).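 Also: enzymatic inhibition of angiotensin-converting enzyme measured with FAPGG as the substrate; in other assays of this panel Not Active means under 50% inhibition at 10 µM.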
T2 sequence (P12822 whole entry): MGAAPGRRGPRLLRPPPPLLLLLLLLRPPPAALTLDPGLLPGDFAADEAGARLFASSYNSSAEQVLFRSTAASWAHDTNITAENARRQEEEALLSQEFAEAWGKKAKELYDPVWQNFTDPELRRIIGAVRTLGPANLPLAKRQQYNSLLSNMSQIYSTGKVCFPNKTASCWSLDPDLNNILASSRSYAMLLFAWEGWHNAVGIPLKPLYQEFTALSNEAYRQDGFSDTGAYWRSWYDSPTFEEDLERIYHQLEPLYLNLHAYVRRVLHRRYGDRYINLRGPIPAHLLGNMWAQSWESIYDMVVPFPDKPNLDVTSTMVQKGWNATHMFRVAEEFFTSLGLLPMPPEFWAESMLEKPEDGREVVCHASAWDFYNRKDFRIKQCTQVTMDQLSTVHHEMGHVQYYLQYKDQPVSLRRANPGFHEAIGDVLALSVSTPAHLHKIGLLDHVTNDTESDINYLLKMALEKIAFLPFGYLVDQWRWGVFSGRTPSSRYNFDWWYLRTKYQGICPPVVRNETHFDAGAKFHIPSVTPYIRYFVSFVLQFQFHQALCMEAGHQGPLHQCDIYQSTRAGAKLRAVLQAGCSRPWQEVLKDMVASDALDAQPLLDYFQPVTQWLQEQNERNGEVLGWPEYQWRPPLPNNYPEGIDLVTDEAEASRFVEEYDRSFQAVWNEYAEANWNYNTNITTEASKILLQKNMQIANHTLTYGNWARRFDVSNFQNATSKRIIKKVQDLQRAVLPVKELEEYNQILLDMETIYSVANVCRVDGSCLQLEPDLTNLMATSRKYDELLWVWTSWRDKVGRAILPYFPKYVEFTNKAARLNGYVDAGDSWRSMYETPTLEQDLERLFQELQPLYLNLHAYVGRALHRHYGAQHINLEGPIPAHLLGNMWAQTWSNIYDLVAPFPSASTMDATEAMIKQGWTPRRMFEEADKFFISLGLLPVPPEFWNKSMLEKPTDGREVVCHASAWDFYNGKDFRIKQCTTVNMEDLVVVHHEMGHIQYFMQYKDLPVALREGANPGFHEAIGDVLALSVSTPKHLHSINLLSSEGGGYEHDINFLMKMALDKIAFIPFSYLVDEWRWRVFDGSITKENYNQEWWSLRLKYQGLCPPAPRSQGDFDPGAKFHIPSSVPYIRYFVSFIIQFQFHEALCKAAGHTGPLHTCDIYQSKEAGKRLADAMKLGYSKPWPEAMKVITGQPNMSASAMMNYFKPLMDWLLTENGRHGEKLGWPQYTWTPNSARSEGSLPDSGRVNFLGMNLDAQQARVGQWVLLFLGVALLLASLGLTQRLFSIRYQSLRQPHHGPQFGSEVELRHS
The class given is tissue-based, Lung.

The target of series [4] is cGMP-specific 3',5'-cyclic phosphodiesterase (Homo sapiens, UniProt O76074). Description: DRUGMATRIX: Phosphodiesterase PDE5 enzyme inhibition (substrate: [3H]cGMP + cGMP). It is filed as tissue-based, Platelet. The conditions noted are these: platelet; Not Active = under 50% inhibition at 10 µM.
Series [5] has as its target Estrogen receptor beta (Homo sapiens, UniProt Q92731). The conditions noted are these: sf9. Also: in other assays of this panel Not Active means under 50% inhibition at 10 µM.
Series [6] addresses Cannabinoid receptor 1 (Homo sapiens, UniProt P21554). The class given is cell membranes, Chem-1, Membrane. Particulars: for IC50: chem-1.
Series [7] concerns the target 5-hydroxytryptamine receptor 4 (Cavia porcellus, UniProt O70528). It is filed as cell membranes, Dunkin-Hartley, Striatum, Membrane. Also: in other assays of this panel Not Active means under 50% inhibition at 10 µM.
For series [8], the target named is T3, Caspase-1 (Homo sapiens, UniProt P29466).
T3 sequence (P29466 whole entry): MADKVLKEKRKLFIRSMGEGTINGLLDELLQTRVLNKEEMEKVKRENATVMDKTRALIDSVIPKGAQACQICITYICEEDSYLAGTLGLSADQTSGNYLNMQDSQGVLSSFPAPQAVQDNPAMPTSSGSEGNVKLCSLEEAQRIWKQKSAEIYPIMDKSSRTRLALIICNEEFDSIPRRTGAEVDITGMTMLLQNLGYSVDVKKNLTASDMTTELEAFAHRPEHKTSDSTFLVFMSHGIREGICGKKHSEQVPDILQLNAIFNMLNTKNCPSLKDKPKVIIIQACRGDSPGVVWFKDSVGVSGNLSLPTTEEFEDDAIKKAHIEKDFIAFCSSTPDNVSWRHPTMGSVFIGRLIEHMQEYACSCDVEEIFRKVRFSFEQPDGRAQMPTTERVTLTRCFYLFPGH
Also noted: species or system Escherichia coli.

Series [9] concerns the target Cytochrome P450 2D6 (Homo sapiens, UniProt P10635). Particulars: bti-tn-5b1-4. Also: in other assays of this panel Not Active means under 50% inhibition at 10 µM.

Sequence of Cytochrome P450 2D6 (P10635 whole entry): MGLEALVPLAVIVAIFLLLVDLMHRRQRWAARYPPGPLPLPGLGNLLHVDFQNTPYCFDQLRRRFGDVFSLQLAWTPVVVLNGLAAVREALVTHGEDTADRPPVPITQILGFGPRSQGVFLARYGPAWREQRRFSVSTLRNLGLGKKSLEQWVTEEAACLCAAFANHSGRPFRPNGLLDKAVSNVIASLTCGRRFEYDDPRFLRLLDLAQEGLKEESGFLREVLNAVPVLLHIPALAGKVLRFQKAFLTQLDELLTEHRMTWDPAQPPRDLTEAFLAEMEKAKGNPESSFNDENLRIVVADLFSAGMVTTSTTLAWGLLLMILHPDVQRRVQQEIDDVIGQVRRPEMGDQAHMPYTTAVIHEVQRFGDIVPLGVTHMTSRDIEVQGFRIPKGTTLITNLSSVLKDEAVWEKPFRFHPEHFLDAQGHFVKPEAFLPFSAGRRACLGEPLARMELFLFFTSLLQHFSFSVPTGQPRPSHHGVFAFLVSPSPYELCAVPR
Sequence of 5-hydroxytryptamine receptor 4 (O70528 whole entry): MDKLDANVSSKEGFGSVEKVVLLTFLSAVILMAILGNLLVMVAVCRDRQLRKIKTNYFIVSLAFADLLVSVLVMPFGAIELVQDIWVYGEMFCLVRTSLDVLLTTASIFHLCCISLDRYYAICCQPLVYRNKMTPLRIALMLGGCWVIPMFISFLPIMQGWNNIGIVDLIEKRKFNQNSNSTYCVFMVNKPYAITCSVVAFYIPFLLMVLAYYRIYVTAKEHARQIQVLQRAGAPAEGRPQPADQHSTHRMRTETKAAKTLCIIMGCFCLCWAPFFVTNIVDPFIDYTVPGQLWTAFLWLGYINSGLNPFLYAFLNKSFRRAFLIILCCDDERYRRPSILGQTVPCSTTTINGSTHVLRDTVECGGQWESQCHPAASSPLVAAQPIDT
Sequence of Cannabinoid receptor 1 (P21554 whole entry): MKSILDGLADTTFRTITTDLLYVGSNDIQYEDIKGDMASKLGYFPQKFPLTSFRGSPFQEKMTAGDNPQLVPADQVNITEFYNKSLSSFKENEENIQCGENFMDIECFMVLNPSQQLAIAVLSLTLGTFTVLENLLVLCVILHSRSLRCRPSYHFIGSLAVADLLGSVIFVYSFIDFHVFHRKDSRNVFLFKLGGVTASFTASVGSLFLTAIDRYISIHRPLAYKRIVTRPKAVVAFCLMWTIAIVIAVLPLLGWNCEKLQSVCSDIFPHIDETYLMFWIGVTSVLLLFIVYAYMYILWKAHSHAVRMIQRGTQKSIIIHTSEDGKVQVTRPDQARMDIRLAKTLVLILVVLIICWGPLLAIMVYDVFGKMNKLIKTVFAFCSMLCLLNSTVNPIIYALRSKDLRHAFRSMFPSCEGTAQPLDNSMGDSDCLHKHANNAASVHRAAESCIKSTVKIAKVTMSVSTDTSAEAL
Sequence of Estrogen receptor beta (Q92731 whole entry): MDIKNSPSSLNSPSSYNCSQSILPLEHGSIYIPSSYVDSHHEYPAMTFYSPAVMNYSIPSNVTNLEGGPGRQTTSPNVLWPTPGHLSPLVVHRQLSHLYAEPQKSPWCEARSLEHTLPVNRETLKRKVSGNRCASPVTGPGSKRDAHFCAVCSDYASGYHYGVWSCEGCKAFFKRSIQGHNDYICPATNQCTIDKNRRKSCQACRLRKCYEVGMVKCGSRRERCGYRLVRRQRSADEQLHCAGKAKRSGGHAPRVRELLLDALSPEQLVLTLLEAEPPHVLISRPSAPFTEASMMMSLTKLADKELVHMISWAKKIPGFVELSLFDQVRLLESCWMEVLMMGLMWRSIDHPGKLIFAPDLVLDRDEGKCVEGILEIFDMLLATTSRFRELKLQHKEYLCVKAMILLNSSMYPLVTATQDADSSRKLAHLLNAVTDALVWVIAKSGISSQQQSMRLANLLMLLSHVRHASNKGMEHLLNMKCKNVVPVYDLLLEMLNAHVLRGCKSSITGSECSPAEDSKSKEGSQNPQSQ

On to `Cc1c(C)c2c(c(C)c1O)CCC(C)(CN1CCN(c3cc(N4CCCC4)nc(N4CCCC4)n3)CC1)O2` (stereo unspecified), for which the IC50 entry in [1], in [2], in [3], in [4], in series [5] and in series [6] was “Not Active” throughout. Also, the IC50 result in series [7] and in series [8] was “Not Active” in each case. The Ki result in [2] was “Not Active”.

Regarding `COc1ccc(CCN(C)CCCC(C#N)(c2ccc(OC)c(OC)c2)C(C)C)cc1OC` (stereo unspecified), the IC50 result in [1], in series [2], in series [3], in [4], in [5] and in [6] was “Not Active” each time. Besides, the IC50 result in series [9], in series [7] and in series [8] was “Not Active” each time. The Ki result in series [2] and in series [9] was “Not Active” in each case.

In the case of `CC(C)Cc1ccc([C@@H](C)C(=O)O)cc1` [(R)-IBUPROPHEN], the IC50 result in series [1], in series [2], in [3], in series [4], in series [5] and in [6] was “Not Active” throughout. Moreover, the IC50 entry in series [9], in series [7] and in series [8] was “Not Active” each time. The Ki entry in series [2] and in [9] was “Not Active” each time.

`Fc1ccc(C(c2ccc(F)cc2)N2CCN(C/C=C/c3ccccc3)CC2)cc1` [FLUNARIZINE]: the IC50 entry in series [1], in [3], in [4], in series [5], in series [9] and in [7] was “Not Active” in each case. The IC50 result in series [8] is on record as “Not Active”. Further, the pIC50 in [6] (read-out: IC50) is 5.52. Further, the pKi in [6] (read-out: Ki) is 5.62. Also, in series [9], the Ki result is “Not Active”.

In the case of `CNCCC(Oc1ccc(C(F)(F)F)cc1)c1ccccc1` (stereo unspecified) [FLUOXETINE], the IC50 result in [1], in series [3], in [4], in series [5], in series [6] and in series [7] was “Not Active” in each case. In addition, the IC50 entry in [8] is “Not Active”.

`Cc1ccc(NC(=O)c2ccc(CN3CCN(C)CC3)cc2)cc1Nc1nccc(-c2cccnc2)n1` [IMATINIB]: the IC50 result in [1], in [3], in series [4], in series [5], in series [6] and in series [9] was “Not Active” each time. For the same compound, the IC50 entry in series [7] and in series [8] was “Not Active” throughout. In series [9], the Ki result is recorded as “Not Active”.

Take `CC(C)NCC(O)c1ccc(O)c(O)c1` (stereo unspecified) [ISOPROTERENOL]: the IC50 entry in series [1], in series [2], in series [3], in series [4], in [5] and in series [6] was “Not Active” throughout. For the same compound, the IC50 result in series [9], in series [7] and in series [8] was “Not Active” in each case. Further, the Ki result in series [2] and in [9] was “Not Active” throughout.

Consider `CNC1(c2ccccc2Cl)CCCCC1=O` (stereo unspecified) [KETAMINE], for which the IC50 entry in series [1], in series [2], in series [3], in series [4], in series [5] and in series [6] was “Not Active” throughout. The IC50 entry in [9], in [7] and in series [8] was “Not Active” each time. Moreover, the Ki entry in series [2] and in series [9] was “Not Active” throughout.

Consider `N#Cc1ccc(C(c2ccc(C#N)cc2)n2cncn2)cc1` [LETROZOLE], for which the IC50 result in series [1], in series [2], in series [3], in [4], in series [5] and in series [6] was “Not Active” each time. For the same compound, the IC50 result in series [9], in series [7] and in series [8] was “Not Active” throughout. The Ki entry in series [2] and in series [9] was “Not Active” in each case.

Consider `CCN(CC)CC(=O)Nc1c(C)cccc1C` [LIDOCAINE], for which the IC50 result in [1], in [2], in [3], in series [4], in [5] and in series [6] was “Not Active” throughout. Besides, the IC50 result in [7] and in [8] was “Not Active” throughout. For the same compound, in [2], the Ki entry was “Not Active”.

As to `CN[C@H]1CC[C@@H](c2ccc(Cl)c(Cl)c2)c2ccccc21` [SERTRALINE], the IC50 result in [1], in [3], in [4], in series [5], in series [6] and in series [9] was “Not Active” throughout. Besides, the IC50 result in [7] and in [8] was “Not Active” each time. For the same compound, the Ki entry in series [9] is “Not Active”.

For the compound `CN(C/C=C/C#CC(C)(C)C)Cc1cccc2ccccc12` [TERBINAFINE], the IC50 entry in series [1], in series [2], in series [3], in series [4], in series [5] and in series [6] was “Not Active” in each case. In addition, the IC50 result in series [7] and in series [8] was “Not Active” throughout. Moreover, in series [2], the Ki result was “Not Active”.

Turning to `Clc1ccccc1CN1CCc2sccc2C1` [TICLOPIDINE], the IC50 result in [1], in series [2], in [3], in [4], in series [5] and in series [6] was “Not Active” each time. The IC50 entry in [7] and in [8] was “Not Active” in each case. The Ki result in [2] is “Not Active”.

As a reminder, the pIC50 is −log10 of the IC50, conventionally taken in molar units. For orientation: pKi means the Ki on a negative log10 scale, so that one unit is a factor of ten.
